Measurements: patent publication US20140274688A1, “MOLECULES HAVING CERTAIN PESTICIDAL UTILITIES, AND INTERMEDIATES, COMPOSITIONS, AND PROCESSES RELATED THERETO” (DOW AGROSCIENCES LLC, priority 2013, published 2014)
Where two headings read alike, the source gives them in different places.

How the values were obtained:
[1] = test system: Beet Armyworm (Spodoptera exigua) ("BAW"); test: Bioassay on Beet Armyworm (BAW), 128-well diet tray assay, percent mortality; type: in vivo; conditions: for BAW rating (percent mortality class): Beet Armyworm, 128-well diet tray assay; for pest or weed control at 50 µg/cm2: Spodoptera exigua, read-out: BAW
Outline: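 Larvae in covered diet trays held at 25 °C, 14:10 light-dark, for five to seven days. Percent mortality scored per well and averaged over eight wells per treatment.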

[2] = test system: Cabbage Looper (Trichoplusia ni) ("CL"); test: Bioassay on Cabbage Looper (CL), 128-well diet tray assay, percent mortality; type: in vivo; conditions: for CL rating (percent mortality class): Cabbage Looper, 128-well diet tray assay; for pest or weed control at 50 µg/cm2: Trichoplusia ni, read-out: CL
Outline: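 Larvae held in covered diet trays at 25 °C, 14:10 light-dark, for five to seven days. Percent mortality scored per well and averaged over eight wells.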

[3] = test system: Yellow Fever Mosquito "YFM" (Aedes aegypti); conditions: for YFM rating (mortality class): Yellow Fever Mosquito larvae, 96-well plates; for YFM: rating of mortality, Yellow Fever Mosquito

Structure (SMILES)	BAW rating (percent mortality class) [1]	CL rating (percent mortality class) [2]	YFM rating (mortality class) [3]	pest or weed control at 50 µg/cm2 [1]	pest or weed control at 50 µg/cm2 [2]	YFM ([3]; Table ABC (P))	YFM ([3]; Table ABC (PC))
Cc1ccc(C(C)C)c(N2C(=O)CS/C2=N\C(=O)NCCc2ccc(-c3ncn(-c4ccc(OC(F)(F)C(F)(F)F)cc4)n3)cc2)c1 [F9, (Z)-1-(3-(2-isopropyl-5-methylphenyl)-4-oxothiazolidin-2-ylidene)-3-(4-(1-(4-(perfluoroethoxy)phenyl)-1H-1,2,4-triazol-3-yl)phenethyl)urea]	A (50-100)	A (50-100)	A (80-100)	–	–	–	–
CC(C)c1ccccc1NC(=S)NC(=O)NCc1ccc(-c2ncn(-c3ccc(OC(F)(F)F)cc3)n2)cc1 [F14, N-[2-(propan-2-yl)phenyl]-N′-(4-{1-[4-(trifluoromethoxy)phenyl]-1H-1,2,4-triazol-3-yl}benzyl)dicarbonimidothioic diamide]	A (50-100)	A (50-100)	A (80-100)	–	–	–	–
Cc1ccc(C(C)C)c(N2C(=O)CS/C2=N\C(=O)NCCCc2ccc(-c3ncn(-c4ccc(OC(F)(F)F)cc4)n3)cc2)c1 [F20, (Z)-1-(3-(2-isopropyl-5-methylphenyl)-4-oxothiazolidin-2-ylidene)-3-(3-(4-(1-(4-(trifluoromethoxy)phenyl)-1H-1,2,4-triazol-3-yl)phenyl)propyl)urea]	A (50-100)	A (50-100)	A (80-100)	–	–	–	–
Cc1ccc(C(C)C)c(NC(=S)NC(=O)NCCCc2ccc(-c3ncn(-c4ccc(OC(F)(F)F)cc4)n3)cc2)c1 [F21, 1-[(2-isopropyl-5-methyl-phenyl)carbamothioyl]-3-[3-[4-[1-[4-(trifluoromethoxy)phenyl]-1,2,4-triazol-3-yl]phenyl]propyl]urea]	A (50-100)	A (50-100)	A (80-100)	–	–	–	–
CC(C)c1ccccc1N1C(=O)CS/C1=N\C(=O)NC1CC1c1ccc(-c2ncn(-c3ccc(OC(F)(F)F)cc3)n2)cc1 (stereo not drawn) [F29, (Z)-1-(3-(2-isopropylphenyl)-4-oxothiazolidin-2-ylidene)-3-(2-(4-(1-(4-(trifluoromethoxy)phenyl)-1H-1,2,4-triazol-3-yl)phenyl)cyclopropyl)urea]	A (50-100)	A (50-100)	A (80-100)	–	–	–	–
Cc1ccc(N2C(=O)CS/C2=N\C(=O)NCCc2ccc(-c3ncn(-c4ccc(OC(F)(F)F)cc4)n3)cc2)c(C(C)C)c1 [P26, (Z)-1-(3-(2-isopropyl-4-methylphenyl)-4-oxothiazolidin-2-ylidene)-3-(4-(1-(4-(trifluoromethoxy)phenyl)-1H-1,2,4-triazol-3-yl)phenethyl)urea]	–	–	–	50 to 100%	50 to 100%	A (80-100)	–
Cc1cccc(N2C(=O)CS/C2=N\C(=O)NCCc2ccc(-c3ncn(-c4ccc(OC(F)(F)F)cc4)n3)cc2)c1C(C)C [P27, (Z)-1-(3-(2-isopropyl-3-methylphenyl)-4-oxothiazolidin-2-ylidene)-3-(4-(1-(4-(trifluoromethoxy)phenyl)-1H-1,2,4-triazol-3-yl)phenethyl)urea]	–	–	–	50 to 100%	50 to 100%	A (80-100)	–
CC(C)c1cc(F)ccc1N1C(=O)CS/C1=N\C(=O)NCCc1ccc(-c2ncn(-c3ccc(OC(F)(F)F)cc3)n2)cc1 [P28, (Z)-1-(3-(4-fluoro-2-isopropylphenyl)-4-oxothiazolidin-2-ylidene)-3-(4-(1-(4-(trifluoromethoxy)phenyl)-1H-1,2,4-triazol-3-yl)phenethyl)urea]	–	–	–	50 to 100%	50 to 100%	A (80-100)	–
CCCc1ccc(C)cc1N1C(=O)CS/C1=N\C(=O)NCCc1ccc(-c2ncn(-c3ccc(OC(F)(F)F)cc3)n2)cc1 [P29, (Z)-1-(3-(5-methyl-2-propylphenyl)-4-oxothiazolidin-2-ylidene)-3-(4-(1-(4-(trifluoromethoxy)phenyl)-1H-1,2,4-triazol-3-yl)phenethyl)urea]	–	–	–	50 to 100%	50 to 100%	A (80-100)	–
Cc1ccc(C(C)C)c(N2C(=O)CS/C2=N\C(=O)NCCCCc2cccc(-c3ncn(-c4ccc(OC(F)(F)F)cc4)n3)c2)c1 [P176, (Z)-1-(3-(2-isopropyl-5-methylphenyl)-4-oxothiazolidin-2-ylidene)-3-(4-(3-(1-(4-(trifluoromethoxy)phenyl)-1H-1,2,4-triazol-3-yl)phenyl)butyl)urea]	–	–	–	50 to 100%	50 to 100%	–	–
CC(C)c1cc(F)ccc1N1C(=O)CS/C1=N\C(=O)NCCCCc1cccc(-c2ncn(-c3ccc(OC(F)(F)F)cc3)n2)c1 [P181, (Z)-1-(3-(4-fluoro-2-isopropylphenyl)-4-oxothiazolidin-2-ylidene)-3-(4-(3-(1-(4-(trifluoromethoxy)phenyl)-1H-1,2,4-triazol-3-yl)phenyl)butyl)urea]	–	–	–	50 to 100%	50 to 100%	–	–
COc1ccc(C(C)C)c(N2C(=O)CS/C2=N\C(=O)NCCCCc2cccc(-c3ncn(-c4ccc(OC(F)(F)F)cc4)n3)c2)c1 [P182, (Z)-1-(3-(2-isopropyl-5-methoxyphenyl)-4-oxothiazolidin-2-ylidene)-3-(4-(3-(1-(4-(trifluoromethoxy)phenyl)-1H-1,2,4-triazol-3-yl)phenyl)butyl)urea]	–	–	–	50 to 100%	50 to 100%	–	–
CCC(CNC(=O)/N=C1\SCC(=O)N1c1ccccc1C(C)C)c1ccc(-c2ncn(-c3ccc(OC(F)(F)F)cc3)n2)cc1 (stereo not drawn) [P209, (Z)-1-(3-(2-isopropylphenyl)-4-oxothiazolidin-2-ylidene)-3-(2-(4-(1-(4-(trifluoromethoxy)phenyl)-1H-1,2,4-triazol-3-yl)phenyl)butyl)urea]	–	–	–	50 to 100%	–	A (80-100)	–
CCC(CNC(=O)/N=C1\SCC(=O)N1c1cc(C)ccc1C(C)C)c1ccc(-c2ncn(-c3ccc(OC(F)(F)F)cc3)n2)cc1 (stereo not drawn) [P364, (Z)-1-(3-(2-isopropyl-5-methylphenyl)-4-oxothiazolidin-2-ylidene)-3-(2-(4-(1-(4-(trifluoromethoxy)phenyl)-1H-1,2,4-triazol-3-yl)phenyl)butyl)urea]	–	–	–	50 to 100%	50 to 100%	–	–
CCC(CNC(=O)/N=C1\SCC(=O)N1c1cc(OC)ccc1C(C)C)c1ccc(-c2ncn(-c3ccc(OC(F)(F)F)cc3)n2)cc1 (stereo not drawn) [P683, (Z)-1-(3-(2-isopropyl-5-methoxyphenyl)-4-oxothiazolidin-2-ylidene)-3-(2-(4-(1-(4-(trifluoromethoxy)phenyl)-1H-1,2,4-triazol-3-yl)phenyl)butyl)urea]	–	–	–	50 to 100%	–	A (80-100)	–
CCCc1ccc(C)cc1NC(=S)NC(=O)NCCCCc1ccc(-c2ncn(-c3ccc(OC(F)(F)F)cc3)n2)cc1 [PC151, 1-[(5-methyl-2-propyl-phenyl)carbamothioyl]-3-[4-[4-[1-[4-(trifluoromethoxy)phenyl]-1,2,4-triazol-3-yl]phenyl]butyl]urea]	–	–	–	50 to 100%	50 to 100%	–	–
CCc1cccc(C)c1NC(=S)NC(=O)NCCCCc1ccc(-c2ncn(-c3ccc(OC(F)(F)F)cc3)n2)cc1 [PC153, 1-[(2-ethyl-6-methyl-phenyl)carbamothioyl]-3-[4-[4-[1-[4-(trifluoromethoxy)phenyl]-1,2,4-triazol-3-yl]phenyl]butyl]urea]	–	–	–	–	–	–	B (More than 0-Less than 80)
